The assay concerns P388 leukemia ip, CD2F1 mice, survival T/C. Put plainly: NCI In Vivo Anticancer Drug Screen. Data for tumor model P388 Leukemia (intraperitoneal) in CD2F1 (CDF1) mice. Particulars: endpoint: median survival time, higher = longer survival. A digest of the protocol: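 Mice carrying the transplanted tumor received test compound or vehicle. Survival was recorded in each group, and the value is the treated-group measurement divided by that of the vehicle-treated control group.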

Where [1] appears, read: dose: 12.5 mg/kg/injection, schedule: Q01DX005 (ip), vehicle: saline with Tween-80.
[2] abbreviates: dose: 25.0 mg/kg/injection, schedule: Q01DX005 (ip), vehicle: saline with Tween-80.
Setting [3] is: dose: 50.0 mg/kg/injection, schedule: Q01DX005 (ip), vehicle: saline with Tween-80.
Setting [4] is: dose: 25.0 mg/kg/injection, schedule: Q01DX009 (ip), vehicle: Klucel (hydroxypropylcellulose) (HPC).
Setting [5] is: dose: 50.0 mg/kg/injection, schedule: Q01DX009 (ip), vehicle: Klucel (hydroxypropylcellulose) (HPC).
Where [6] appears, read: dose: 100.0 mg/kg/injection, schedule: Q01DX009 (ip), vehicle: Klucel (hydroxypropylcellulose) (HPC).
The mark [7] stands for this setting: dose: 200.0 mg/kg/injection, schedule: Q01DX009 (ip), vehicle: Klucel (hydroxypropylcellulose) (HPC).
Setting [8] is: dose: 50.0 mg/kg/injection, schedule: Q01DX005 (ip), vehicle: saline.
Setting [9] is: dose: 100.0 mg/kg/injection, schedule: Q01DX005 (ip), vehicle: saline.
Where [10] appears, read: dose: 50.0 mg/kg/injection, schedule: Q01DX009 (ip), vehicle: saline with Tween-80.
The mark [11] stands for this setting: dose: 100.0 mg/kg/injection, schedule: Q01DX009 (ip), vehicle: saline with Tween-80.
Setting [12] is: dose: 200.0 mg/kg/injection, schedule: Q01DX009 (ip), vehicle: saline with Tween-80.
The mark [13] stands for this setting: dose: 100.0 mg/kg/injection, schedule: Q04DX002 (ip), vehicle: saline with Tween-80.
Setting [14] is: dose: 200.0 mg/kg/injection, schedule: Q04DX002 (ip), vehicle: saline with Tween-80.
The mark [15] stands for this setting: dose: 400.0 mg/kg/injection, schedule: Q04DX002 (ip), vehicle: saline with Tween-80.
Where [16] appears, read: dose: 100.0 mg/kg/injection, schedule: Q01DX005 (ip), vehicle: saline with Tween-80.
The mark [17] stands for this setting: dose: 200.0 mg/kg/injection, schedule: Q01DX005 (ip), vehicle: saline with Tween-80.
Setting [18] is: dose: 60.0 mg/kg/injection, schedule: Q01DX005 (ip), vehicle: saline with Tween-80.
Where [19] appears, read: dose: 120.0 mg/kg/injection, schedule: Q01DX005 (ip), vehicle: saline with Tween-80.
Where [20] appears, read: dose: 240.0 mg/kg/injection, schedule: Q01DX005 (ip), vehicle: saline with Tween-80.

“And” between values parts separate entries of the source, which are not always exact repeats. Equal values may be shown once. Toxic doses and inconclusive results are not listed.

On to `CN(C)C(=S)c1ccccc1NS(=O)(=O)c1ccccc1`, for which the T/C by setting is: (dose: 100.0 mg/kg/injection, schedule: Q04DX003 (ip), vehicle: saline) 106 % of control; (dose: 200.0 mg/kg/injection, schedule: Q04DX003 (ip), vehicle: saline) 100 % of control; (dose: 400.0 mg/kg/injection, schedule: Q04DX003 (ip), vehicle: saline) 97 % of control.

`C/C(=N\NC(=S)Nc1ccc(C(=O)O)cc1)c1ccccn1`: the T/C reads like this: under setting [1], 110 % of control; under setting [2], 112 % of control; under setting [3], 109 % of control and 114 % of control.

As to `CC(CCc1cccc2ccccc12)(C(=O)O)C(=O)O`, the T/C is 90 % of control (dose: 50.0 mg/kg/injection, schedule: Q01DX009 (ip), vehicle: saline sonified); 100 % of control (dose: 100.0 mg/kg/injection, schedule: Q01DX009 (ip), vehicle: saline sonified); 90 % of control (dose: 200.0 mg/kg/injection, schedule: Q01DX009 (ip), vehicle: saline sonified).

As to `CCCCC1C(=O)N2C=C(c3ccccc3)c3ccccc3N2C1=O` (stereo not given), the T/C is 104 % of control under setting [4]; 111 % of control under setting [5]; 95 % of control under setting [6]; 105 % of control under setting [7]; 95 % of control (dose: 400.0 mg/kg/injection, schedule: Q01DX009 (ip), vehicle: Klucel (hydroxypropylcellulose) (HPC)).

In the case of `O=C1NC2(CCCCC2)C(=O)N1CCl`, the T/C by setting is: (dose: 6.25 mg/kg/injection, schedule: Q01DX005 (ip), vehicle: saline) 100 % of control; (dose: 12.5 mg/kg/injection, schedule: Q01DX005 (ip), vehicle: saline) 101 % of control; (dose: 25.0 mg/kg/injection, schedule: Q01DX005 (ip), vehicle: saline) 108 % of control; (dose: 30.0 mg/kg/injection, schedule: Q01DX005 (ip), vehicle: saline) 104 % of control; under setting [8], 103 % of control; (dose: 60.0 mg/kg/injection, schedule: Q01DX005 (ip), vehicle: saline) 122 % of control. The T/C is, setting by setting: under setting [9], 112 % of control; (dose: 120.0 mg/kg/injection, schedule: Q01DX005 (ip), vehicle: saline) 118 % of control; (dose: 240.0 mg/kg/injection, schedule: Q01DX005 (ip), vehicle: saline) 114 % of control.

For `O=C(Nc1ccccc1)Nc1nccs1`, the T/C under setting [10] is 92 % of control, the T/C under setting [11] is 96 % of control and the T/C under setting [12] was 93 % of control.

Turning to `Cc1cc(CC(C)O)n[nH]1` (stereo not given), the T/C is, setting by setting: under setting [5], 109 % of control; under setting [6], 106 % of control; under setting [7], 102 % of control.

For the compound `CCOC(=O)N(O)c1ccc(C)cc1`, the T/C is, setting by setting: under setting [13], 109 % of control; under setting [14], 112 % of control; under setting [15], 124 % of control.

For `COc1ccc(S(=O)(=O)N/N=C/c2cc([N+](=O)[O-])ccc2O)cc1`, the T/C under setting [3] was 101 % of control, the T/C under setting [16] was 107 % of control and the T/C under setting [17] is 119 % of control.

Regarding `C=C=C(COC(C)=O)ON1CCCCC1`, the T/C reads like this: under setting [8], 111 % of control; under setting [9], 111 % of control.

With `CNC(=O)OCc1c(-c2ccccc2)c(-c2ccccc2)n(-c2ccccc2)c1COC(=O)NC`, the T/C runs as follows: (dose: 12.5 mg/kg/injection, schedule: Q01DX009 (ip), vehicle: distilled water + Tween-80) 110 % of control; (dose: 25.0 mg/kg/injection, schedule: Q01DX009 (ip), vehicle: distilled water + Tween-80) 112 % of control and 117 % of control; (dose: 100.0 mg/kg/injection, schedule: Q01DX009 (ip), vehicle: distilled water + Tween-80) 155 % of control; (dose: 200.0 mg/kg/injection, schedule: Q01DX009 (ip), vehicle: distilled water + Tween-80) 171 % of control and 175 % of control.

Take `C/C(=N\N=c1/cc(Cl)n(C)c(=O)n1C)c1ccc(Cl)cc1`: the T/C was 102 % of control under setting [5] and 99 % of control under setting [6].

On to `COc1ccc(-n2cc(-c3ccc(Cl)cc3)c3c(N)ncnc32)cc1`, for which the T/C under setting [18] was 105 % of control, the T/C under setting [19] was 94 % of control and the T/C under setting [20] was 86 % of control.

On to `CCn1nccc1N`, for which the T/C is, setting by setting: (dose: 6.25 mg/kg/injection, schedule: Q01DX005 (ip), vehicle: saline with Tween-80) 98 % of control; under setting [1], 106 % of control; under setting [2], 104 % of control.

On to `COc1ccc(Cc2cc3c(cc2OCC(=O)N(C)C)OCO3)cc1`, for which the T/C was 103 % of control (dose: 50.0 mg/kg/injection, schedule: Q01DX005 (ip), vehicle: Klucel (hydroxypropylcellulose) (HPC)); 98 % of control (dose: 100.0 mg/kg/injection, schedule: Q01DX005 (ip), vehicle: Klucel (hydroxypropylcellulose) (HPC)); 96 % of control (dose: 200.0 mg/kg/injection, schedule: Q01DX005 (ip), vehicle: Klucel (hydroxypropylcellulose) (HPC)).

For `CC1CC(=O)Nc2nc(N)ncc21` (stereo not given), the T/C reads like this: under setting [18], 102 % of control; under setting [19], 106 % of control; under setting [20], 108 % of control.

In the case of `CCCCCCCCCCCCOC1C=C(C)C(=O)O1` (stereo not given), the T/C reads like this: under setting [13], 100 % of control; under setting [14], 101 % of control; under setting [15], 100 % of control.

As to `S=C1NC2(CCCCCC2)NN1c1ccccc1`, the T/C by setting is: under setting [10], 97 % of control; under setting [11], 94 % of control; under setting [12], 91 % of control.

As for `CC1=CC2C(O)(CC3(CO)OC3C3C4C(C)(C)C4(OC(=O)c4ccccc4)C(OC(=O)c4ccccc4)C(C)C32O)C1=O` (stereo not given), the T/C is, setting by setting: (dose: 50.0 micrograms/kg/injection, schedule: Q01DX005 (ip), vehicle: saline + alcohol) 94 % of control; (dose: 100.0 micrograms/kg/injection, schedule: Q01DX005 (ip), vehicle: saline + alcohol) 97 % of control; (dose: 200.0 micrograms/kg/injection, schedule: Q01DX005 (ip), vehicle: saline + alcohol) 99 % of control; (dose: 400.0 micrograms/kg/injection, schedule: Q01DX005 (ip), vehicle: saline + alcohol) 94 % of control; (dose: 800.0 micrograms/kg/injection, schedule: Q01DX005 (ip), vehicle: saline + alcohol) 105 % of control.

As to `CC(=O)Oc1ccc(=O)[nH]c1`, the T/C (dose: 12.5 mg/kg/injection, schedule: Q01DX009 (ip), vehicle: saline) was 100 % of control and 105 % of control.

`CCCC1(CC(=O)OCC)SCCN1C(=O)OCC` (stereo not given): the T/C is, setting by setting: under setting [2], 102 % of control; under setting [3], 102 % of control; under setting [16], 102 % of control; under setting [17], 102 % of control.

Consider `CC(C)CC(=O)CC(=O)C(C)(C)C.CC(C)CC(=O)CC(=O)C(C)(C)C.CC(C)CC(=O)CC(=O)C(C)(C)C.CC(C)CC(=O)CC(=O)C(C)(C)C.[Ce]`, for which the T/C was 106 % of control (dose: 50.0 mg/kg/injection, schedule: Q01DX009 (ip), vehicle: distilled water + alcohol); 103 % of control (dose: 100.0 mg/kg/injection, schedule: Q01DX009 (ip), vehicle: distilled water + alcohol); 106 % of control (dose: 200.0 mg/kg/injection, schedule: Q01DX009 (ip), vehicle: distilled water + alcohol).

Turning to `Cc1ccc2nc(CC(=O)c3ccc4ccccc4c3)c(=O)[nH]c2c1`, the T/C reads like this: under setting [18], 99 % of control; under setting [19], 92 % of control; under setting [20], 94 % of control.

For `C=CCSC(=S)Nc1nc2ccc([N+](=O)[O-])cc2s1`, the T/C by setting is: (dose: 6.25 mg/kg/injection, schedule: Q01DX009 (ip), vehicle: Klucel (hydroxypropylcellulose) (HPC)) 106 % of control; (dose: 12.5 mg/kg/injection, schedule: Q01DX009 (ip), vehicle: Klucel (hydroxypropylcellulose) (HPC)) 109 % of control; under setting [4], 103 % of control.
